Results on 4 molecules are retold here after PMC10525132, “Potent Antioxidant and Anti-Tyrosinase Activity of Butein and Homobutein Probed by Molecular Kinetic and Mechanistic Studies” (Antioxidants, 2023).

For series [1] the following is noted: cited from earlier work.
Series [2] in a line: Inhibited autoxidation of methyl linoleate in Triton X-100 micelles (O2 uptake kinetics). The protocol: Autoxidation studies were performed as previously described, with slight modifications. In a typical experiment, 2.5 mL of air-saturated buffered (PBS, 50 mM, pH 7.4) aqueous dispersion of MeLin (final concentration 2.74 mM) in Triton™ X-100 (final concentration 16 mM) micelles were prepared by vortex mixing. A fresh stock solution of AAPH was added (final concentration 2.5 mM), immediately followed by addition (5–30 μL) of a stock solution of the antioxidant in acetonitrile (final concentration of 1–20 μM) and by additional vortex mixing (5 s). The mixture was sealed in a 2 mL glass vial provided with a PTFE-coated stirring bar and capped with the O2 sensor. The sample was equilibrated at 37 °C in a thermostatted bath equipped with a sealed magnetic stirrer, and oxygen concentration was monitored with time as previously described. Oxygen consumption in the absence of antioxidants was compared with that recorded in the presence of butein, homobutein, or α-tocopherol (α-TOH) as the reference antioxidant. […]. The stoichiometric factor n was determined from the length of the inhibited period τ by Equation (3). The rate of initiation Ri was determined in preliminary experiments using α-TOH as the inhibitor (n = 2) by Equation (3). (1) −d[O2]/dt=kp[RH]Ri/nkinh[AH]+Ri (2) R0/Rinh−Rinh/R0=nkinh[AH]/2ktRi (3) n=Riτ/[AH]
To study the antioxidant activity of butein and homobutein on quantitative grounds, we performed inhibited autoxidation studies using biomimetic neutral micelles of methyl linoleate (MeLin) in aqueous Triton™ X-100 (with 50 mM PBS, pH 7.4, 37 °C), since it is a well-validated model we and others used in previous studies. The reaction kinetics was followed by monitoring oxygen consumption via miniaturized NIR-fluorescence-quenching O2 probes, according to a previously validated protocol, both in the absence and in the presence of different concentrations of butein or homobutein. The reaction was initiated thermally in the aqueous phase by the controlled decomposition of the azo compound AAPH so as to clearly distinguish the chain-breaking mechanism from other efficacies based on interference with the initiation process (e.g., the Fenton reaction by metal chelation) and α-TOH was used as the reference antioxidant.

On the set-up of series [3]: method as in doi:10.1021/ja00310a049. Particulars: reference value used for calibration, cited from earlier work.

“And” between values parts separate entries of the source, which are not always exact repeats. Equal values may be shown once. Read-outs that look alike come from different tables or passages of the source.

Regarding `CC(C)(C)c1cc(O)c(O)c(C(C)(C)C)c1` [3,5-di-tert-butylcatechol], the BDEOH in series [1] is 78.2 kcal/mol.
On to `CC(C)(C)c1cc(C(C)(C)C)c(O)c(C(C)(C)C)c1` [TBP, 2,4,6-tri-tert-butylphenol], for which, in series [1] (reference phenol), the BDEOH was 80.1 kcal/mol.
Regarding `OCCc1ccc(O)c(O)c1` [hydroxytyrosol], the BDEOH in series [1] is on record as 80.8 kcal/mol.
`Cc1c(C)c2c(c(C)c1O)CC[C@@](C)(CCC[C@H](C)CCC[C@H](C)CCCC(C)C)O2` [α-TOH, (R,R,R)-α-tocopherol]: the “kinh (inhibition rate constant)” value is on record as 22.4 ± 5.8 10^3 M^−1s^−1 in series [2] (AAPH (2.5 mM) initiated autoxidation of MeLin/Triton X-100 micelles, 37 °C, pH 7.4) and “(2.2 ± 0.6) × 10^4 M^−1s^−1” in series [2] (MeLin in Triton X-100 micelles, pH 7.4, 37 °C). The “n (stoichiometric factor of peroxyl radical trapping)” value is 2 and 2 ^2 in series [3]; 2.0 in series [3] (listed as tocopherol). In addition, the BDEOH in series [1] is 77.1 ^3 kcal/mol.
